Measurements reported in article PMC4301837, “Aldosterone synthase inhibition: cardiorenal protection in animal disease models and translation of hormonal effects to human subjects” (Journal of Translational Medicine, 2014).
Where two headings read alike, the source gives them in different places. Marks after values point to notes of the source that are not given here.

Assays:
[1] = system: ACTH-stimulated cortisol; conditions: rhesus monkeys, cited from earlier work
[2] = in vivo; conditions: male, Sprague-Dawley, rat, plasma, po
Procedure: (§1) All animal procedures were conducted in accordance with an approved Novartis Animal Care and Use Committee protocol and the Guide for the Care and Use of Laboratory Animals as described previously [21]. Male S-D rats (~500 g) were purchased from Taconic Farms (Germantown, NY, USA) and acclimatized in the Novartis vivarium (12 h light/dark cycle; 72°F; 55% relative humidity) for at least 7 days before being used in experiments. Rats were provided normal chow (Harlan Teklad 8604) and water ad libitum except for a partial fast before and during an experiment.
(§2) Both rats and monkeys were surgically instrumented with chronically indwelling femoral venous and arterial catheters to allow intravenous administration of substances and repeated blood sampling.
(§3) All pharmacokinetic parameters were derived from concentration–time data by non-compartmental analyses and were calculated using WinNonlin (Enterprise, Version 5.2; Pharsight Corporation, Palo Alto, CA, USA).

[3] = molecular target: recombinant rat aldosterone synthase (CYP11B2) (Rattus norvegicus, UniProt P30099); experiment: biochemical
Procedure: (§4) Recombinant rat CYP11B2 and CYP11B1 enzymes were prepared similarly. All cell lines were maintained in Dulbecco’s modified Eagle’s medium supplemented with 10% fetal bovine serum, 0.5× antibiotic, 800 μg/mL geneticin and 250 μg/mL hygromycin (double-selection medium; all from Invitrogen, Carlsbad, CA, USA).
(§5) Human CYP11B2 and CYP11B1 assays were performed as described previously [20]. The rat and monkey assays were conducted similarly, using 11-DOC as substrate.
(§6) Half-maximal inhibitory concentration (IC50) values were derived using a non-linear least-squares curve-fitting program (XLfit; ID Business Solutions Inc., Bridgewater, NJ, USA).
(§7) Aldosterone concentration was measured using 96-well plates. Each test sample was incubated with 0.02 µCi D-[1,2,6,7-^3H(N)]aldosterone (PerkinElmer, Boston, MA, USA) and 0.2 µg anti-aldosterone antibody (ATCC, Manassas, VA, USA) in phosphate-buffered saline containing 0.1% Triton X-100, 0.1% bovine serum albumin, and 12% glycerol (in a total volume of 200 µL) at room temperature for 1 h. Anti-mouse polyvinyltoluene (PVT) scintillation proximity assay (SPA) beads (50 µL: GE Health Sciences, Piscataway, NJ, USA) were then added to each well and incubated overnight at room temperature prior to counting in a Microbeta plate counter (PerkinElmer). […] The amount of aldosterone, cortisol or corticosterone was calculated by comparison with a standard curve.

[4] = monkey, 15–150 μg/kg
Source text: (§8) Male cynomolgus monkeys (Macaca fascicularis) were selected for their cooperation and ability to sit comfortably in chairs and were conditioned to remain in the chairs for extended periods before the studies began. On the day of the experiment, monkeys were removed from their home cages with a pole/collar device (Primate Products, Inc., Woodside, CA, USA), secured in their restraining chairs, and transported to the quiet study room. The monkeys remained in the chair for the duration of the experiment (up to 10 h), during which time an enrichment and feeding regimen was followed.
Compound doses in the monkey model are quoted as free base equivalents.
Six monkeys (4.9–8.8 kg) were selected and were divided into two groups of three animals. Experiments were not initiated until after at least 2 weeks of recovery from the catheter/vascular access port (VAP) surgeries. Thirty minutes before the start of the experiment, a Huber needle was inserted transdermally into the VAP for the collection of blood samples and injection of ACTH. Between samplings, catheters/VAPs were flushed with saline and kept patent with 10 U/mL heparin. […]
as §3

[5] = system: healthy male volunteers; experiment: Human pharmacodynamics, multiple-dose phase; conditions: for Plasma potassium, Δ Day2 vs baseline (Day −1) / Plasma potassium, Δ Day7 vs baseline (Day −1) / Plasma potassium, Δ Day14 vs Day 7 / Plasma sodium, Δ Day2 vs baseline (Day −1) / Plasma sodium, Δ Day7 vs baseline (Day −1) / Plasma sodium, Δ Day14 vs Day 7 / Urinary potassium, Δ Day 1 vs baseline (Day −1) / Urinary potassium, Δ Day 7 vs baseline (Day −1) / Urinary potassium, Δ Day 14 vs Day 7 / Urinary sodium, Δ Day 1 vs baseline (Day −1) / Urinary sodium, Δ Day 7 vs baseline (Day −1) / Urinary sodium, Δ Day 14 vs Day 7: ANCOVA mean
[6] = molecular target: recombinant rat 11β-hydroxylase (CYP11B1) (Rattus norvegicus, UniProt P15393); experiment: biochemical
Procedure: as §4, §5, §6, §7

[7] = system: Ang II-stimulated aldosterone release; parameters: method as in D. Rigel, personal communication; conditions: dogs; ref D. Rigel, personal communication; read-out: EC50, inhibition of Ang II-stimulated aldosterone release; cited from earlier work
[8] = system: patients with essential hypertension; conditions: cited from earlier work
[9] = in vivo; conditions: male, cynomolgus monkey, plasma, po
[10] = system: ACTH-stimulated plasma aldosterone and cortisol; experiment: animal or person; conditions: Macaca fascicularis
[11] = in vitro; conditions: monkey, plasma
[12] = system: ACTH-stimulated aldosterone, cortisol and precursors; experiment: Human ACTH (cortisol) stimulation test, multiple-dose phase; type: in vivo
Procedure: The multiple-dose phase involved four cohorts, each of 18 subjects. […] Subjects were placed on a controlled sodium restricted diet from the day before dosing until 72 h post-dose and were housed at the study center for this period. Until Day 7, the diet was ~50–60 mEq Na^+/~50–60 mEq K^+. On the morning of Day 8, potassium in the diet was increased to ~100 mEq. Based on urinary electrolyte values obtained from placebo subjects on Day 7 and Day 14 respectively, the actual diet was ~95 ± 63 mEq Na^+/46 ± 12 mEq K^+ for the first week and ~86 ± 42 mEq Na^+/69 ± 25 mEq K^+ for the second week.
Pharmacodynamic assessments included the measurement of aldosterone, plasma renin activity (PRA), cortisol and 11-deoxycortisol during both phases of the study. In addition, ACTH and 11-DOC were measured during the multiple-dose phase. During the single-dose phase, blood samples for pharmacodynamic assessments were collected pre-dose and at 1, 2, 4, 8, 12 and 24 h post-dose. During the multiple-dose phase, samples were collected pre-dose and at 1, 2, 4, 8 and 12 h post-dose on Days −1 (baseline), 1, 7, 8 and 14, as well as pre-dose on Days 2 and 9, and at 24, 48 and 72 h after the final dose (i.e., on Days 15, 16 and 17). In addition, subjects underwent a cortisol stimulation test on Days –2, 6 and 13; An ACTH analog was injected 2 h post-dose and blood samples were collected prior to, and at 30 and 60 min after, the ACTH injection. Aldosterone and PRA levels were measured by radioimmunoassay and cortisol and 11-deoxycortisol levels by LC-MS/MS (see Additional file 1).
All subjects with evaluable pharmacodynamic measurements were included in the analysis, and data from the two study phases were analyzed separately. An analysis of covariance (ANCOVA) with treatment as factor and baseline value as covariate was performed to evaluate changes from baseline in pharmacodynamic parameters at each time point.
Aldosterone levels were measured by radioimmunoasssay with 100 μl of EDTA plasma or 500 μl of urine using the DSL-8600 ACTIVE® Aldosterone Coated-Tube radioimmunoassay kit from Diagnostic Systems Laboratories, Inc. (LLOQ was 69 pmol/l [25.0 pg/ml] for plasma and 2 nmol/l [0.75 ng/ml] for urine).
Cortisol, 11-deoxycortisol and 11-deoxycorticosterone levels were measured by LC/MS/MS of 250 μL of EDTA plasma or 500 μL urine (LLOQ was 13.79 nmol/L [5.00 ng/mL] for cortisol and 2.89 nmol/L [1.00 ng/mL] for 11-deoxycortisol and 11-deoxycorticosterone in plasma and 2.76 nmol/L [1.00 ng/mL] for cortisol in urine). For plasma cortisol, based on 9 standards ranging from 5–300ng/ml (>70 replicates of each) run at the time of sample analysis, the coefficient of variation (CV) and were 2.14–5.32% and 97.6–104%, respectively. For urine cortisol, based on 7 standards ranging from 1–100ng/ml (22 replicates of each) run at the time of sample analysis, CV and accuracy were 1.55–4.22% and 97.0–101.6%, respectively. For plasma 11-deoxycortisol, based on 9 standards ranging from 1–300ng/ml (>50 replicates of each) run at the time of sample analysis, CV and accuracy were 3.69–8.22% and 91.33–108%, respectively. For 11-deoxycorticosterone, based on 8 standards ranging from 0.05–1 ng/ml (19–20 replicates of each) run during assay validation, CV of the plasma assay was 2.38–8.71% and bias was -2.4–4.0%.

[13] = system: dTG rats with pre-established cardiorenal disease; experiment: Survival study in older, enalapril-pre-treated dTG rats with established cardiorenal disease; type: in vivo, rat; conditions: older dTG rats
Procedure: In order to study the effects of aldosterone inhibition on survival in older dTG rats with established cardiorenal disease, we modified the model by treating male dTG rats during their developmental stage (3–8 weeks of age) with the angiotensin-converting enzyme (ACE) inhibitor enalapril.
In experiments with older dTG rats (treated with enalapril for 5 weeks), urine collections and echocardiographic examinations were conducted as above but systolic arterial pressure was estimated in conscious rats by tail plethysmography (Model# 56-1, IITC Life Science Inc., Woodland Hills, CA, USA) using appropriate tail cuff sensors (B63), and restrainer (size 80), at a constant chamber temperature of 30°C.
In the survival studies, dTG rats were euthanized if they became moribund. Moribundity was defined as a decrease in body weight of ≥ 20% from “baseline” or two consecutive days of observable hematuria. The study endpoint was the age of the animal at death or at moribundity requiring euthanization.

[14] = rat, over the tested dose range
Procedure: as §1, §2, §3

[15] = system: ACTH-stimulated aldosterone and corticosterone synthesis; conditions: rat, ACTH stimulation
Procedure: (§9) Male S-D rats (~500 g) were purchased from Taconic Farms (Germantown, NY, USA) and acclimatized in the Novartis vivarium (12 h light/dark cycle; 72°F; 55% relative humidity) for at least 7 days before being used in experiments. Rats were provided normal chow (Harlan Teklad 8604) and water ad libitum except for a partial fast before and during an experiment.
(§10) Study protocols for the rat models of Ang-II- and ACTH-stimulated aldosterone synthesis followed a published protocol [21]. For the Ang-II-infusion model, an initial loading dose of 300 ng/kg angiotensin II (Ang II) was followed by 100 ng/kg/min intravenous (i.v.) infusion for 9 h. […] After 1 h of Ang II or ACTH infusion, a blood sample was collected for determining the post-Ang II or ACTH ‘baseline’ (i.e., secretagogue-elevated) plasma aldosterone and corticosterone concentrations. […] In both models, infusion continued for a further 8 h.
(§11) Blood samples were centrifuged at 20,000g for 20 min at 4°C to separate out plasma, which was aliquoted and frozen at −70°C until required for analysis. Plasma aldosterone and cortisol concentrations from animal studies were measured using commercially available solid-phase ^125I radioimmunoassay kits (Coat-A-Count Aldosterone TKAL1; Coat-A-Count Cortisol TKCO1; Siemens Healthcare Diagnostic Products).

[16] = system: ACTH-stimulated plasma aldosterone and cortisol
Source text: as §8
Six monkeys (4.9–8.8 kg) were selected and were divided into two groups of three animals. Experiments were not initiated until after at least 2 weeks of recovery from the catheter/vascular access port (VAP) surgeries. Thirty minutes before the start of the experiment, a Huber needle was inserted transdermally into the VAP for the collection of blood samples and injection of ACTH. Between samplings, catheters/VAPs were flushed with saline and kept patent with 10 U/mL heparin.
Blood samples (0.3 mL in 15 U/mL heparin) for baseline pharmacokinetic and pharmacodynamic assessments were collected at 0.5 h, 0.25 h and immediately before dosing. […] Blood samples were collected at 0.125, 0.25, 0.5, 0.75 and 1 h after ACTH injection to assess the time course of plasma aldosterone and cortisol stimulation. […] Between the 8 h and 23.5 h collections, the Huber needles were removed and the monkeys were returned to their home cages. All instrumentation was removed after the last sample at 24 h.
Data and statistical analyses were conducted with Microsoft Excel (Version 2007, Microsoft, Redmond, WA, USA). All differences were considered statistically significant at a two-sided P value ≤ 0.05.
as §11

[17] = in vitro; conditions: rat, plasma
[18] = molecular target: aldosterone synthase (CYP11B2), monkey adrenal homogenate (Macaca fascicularis, UniProt A0A2K5UPL9); experiment: biochemical
Procedure: (§12) Rat adrenal homogenates were prepared from the adrenal glands of male Sprague-Dawley (S-D) rats as described previously [21]. Monkey CYB11B2 and CYB11B1 homogenates were prepared from the adrenal glands of female cynomolgous monkeys. Monkey adrenal gland tissue was minced and homogenized on ice in a glass tissue grinder in 1 mL of ice-cold homogenization buffer per 100 mg tissue (adding 2.7 mmol/L CaCl2 and one ethylenediaminetetraacetic acid (EDTA)-free protease inhibitor tablet per 50 mL buffer) [20]. The homogenized material was centrifuged at 450 g for 5 min at 4°C, and the supernatant brought to a final glycerol concentration of 5%, flash-frozen in liquid nitrogen, and stored at −80°C until analysis. Aldosterone, cortisol and corticosterone concentrations were quantified using 96-well plate assays (see Additional file 1).
(§13) The rat and monkey assays were conducted similarly, using 11-DOC as substrate.
as §6
(§14) Aldosterone concentration was measured using 96-well plates. […] The amount of aldosterone, cortisol or corticosterone was calculated by comparison with a standard curve.

[19] = system: Ang-II-stimulated aldosterone synthesis; conditions: rat, Ang II stimulation
Procedure: as §9, §10, §11

[20] = molecular target: aldosterone synthase (CYP11B2), rat adrenal homogenate (Rattus norvegicus, UniProt P30099); experiment: biochemical
Procedure: as §12, §13, §6, §14

[21] = molecular target: recombinant human 11β-hydroxylase (CYP11B1) (Homo sapiens, UniProt P15538); conditions: Lineweaver–Burk plots; at higher concentrations
Procedure: as §4, §5, §6, §7

[22] = system: healthy male volunteers
[23] = LCI699 0.5 mg, Day 1, mean ± SEM
[24] = 524 patients, 0.25 to 1 mg, 8 weeks
[25] = approximately 2 h after oral dosing

Sequence of aldosterone synthase (CYP11B2), rat adrenal homogenate (P30099 35-510): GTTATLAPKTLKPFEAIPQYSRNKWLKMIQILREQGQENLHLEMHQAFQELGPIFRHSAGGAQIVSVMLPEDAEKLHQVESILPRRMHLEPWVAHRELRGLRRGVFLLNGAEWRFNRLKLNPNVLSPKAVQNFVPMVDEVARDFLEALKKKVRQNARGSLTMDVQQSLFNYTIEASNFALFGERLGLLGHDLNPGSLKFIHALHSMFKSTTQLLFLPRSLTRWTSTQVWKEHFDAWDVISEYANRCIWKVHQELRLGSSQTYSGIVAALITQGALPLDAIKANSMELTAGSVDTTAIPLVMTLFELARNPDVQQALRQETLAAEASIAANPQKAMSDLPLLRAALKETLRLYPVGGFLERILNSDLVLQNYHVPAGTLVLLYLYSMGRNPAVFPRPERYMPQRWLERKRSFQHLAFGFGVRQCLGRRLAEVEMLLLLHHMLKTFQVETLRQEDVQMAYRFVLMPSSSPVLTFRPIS
Sequence of recombinant rat aldosterone synthase (CYP11B2) (P30099 35-510): as above
Sequence of recombinant human 11β-hydroxylase (CYP11B1) (P15538 25-503): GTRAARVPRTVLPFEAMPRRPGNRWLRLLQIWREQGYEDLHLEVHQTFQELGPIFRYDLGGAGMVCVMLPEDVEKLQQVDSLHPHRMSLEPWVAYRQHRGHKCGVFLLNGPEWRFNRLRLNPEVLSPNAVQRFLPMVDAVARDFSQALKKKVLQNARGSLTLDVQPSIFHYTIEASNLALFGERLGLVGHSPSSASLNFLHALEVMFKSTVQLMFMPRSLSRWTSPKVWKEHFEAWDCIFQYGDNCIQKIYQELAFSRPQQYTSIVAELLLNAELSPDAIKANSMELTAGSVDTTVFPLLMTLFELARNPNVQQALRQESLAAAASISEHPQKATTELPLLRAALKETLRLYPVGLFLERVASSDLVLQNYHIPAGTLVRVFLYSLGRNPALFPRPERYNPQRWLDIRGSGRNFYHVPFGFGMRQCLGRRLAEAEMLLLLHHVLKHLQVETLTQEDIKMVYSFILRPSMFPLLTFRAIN
Sequence of recombinant rat 11β-hydroxylase (CYP11B1) (P15393 25-499): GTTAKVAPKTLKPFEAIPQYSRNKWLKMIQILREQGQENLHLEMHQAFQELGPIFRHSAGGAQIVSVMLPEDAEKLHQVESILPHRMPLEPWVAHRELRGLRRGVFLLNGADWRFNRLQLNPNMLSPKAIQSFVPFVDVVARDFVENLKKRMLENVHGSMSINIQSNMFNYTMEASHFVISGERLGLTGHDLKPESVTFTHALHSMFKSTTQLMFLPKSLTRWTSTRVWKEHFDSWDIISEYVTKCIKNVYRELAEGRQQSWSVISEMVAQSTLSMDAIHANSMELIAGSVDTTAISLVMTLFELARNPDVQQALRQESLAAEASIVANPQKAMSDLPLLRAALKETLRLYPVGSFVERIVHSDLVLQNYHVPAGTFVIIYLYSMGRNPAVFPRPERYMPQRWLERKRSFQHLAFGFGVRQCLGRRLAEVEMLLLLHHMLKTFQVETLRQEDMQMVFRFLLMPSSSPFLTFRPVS
Sequence of aldosterone synthase (CYP11B2), monkey adrenal homogenate (A0A2K5UPL9 1-503): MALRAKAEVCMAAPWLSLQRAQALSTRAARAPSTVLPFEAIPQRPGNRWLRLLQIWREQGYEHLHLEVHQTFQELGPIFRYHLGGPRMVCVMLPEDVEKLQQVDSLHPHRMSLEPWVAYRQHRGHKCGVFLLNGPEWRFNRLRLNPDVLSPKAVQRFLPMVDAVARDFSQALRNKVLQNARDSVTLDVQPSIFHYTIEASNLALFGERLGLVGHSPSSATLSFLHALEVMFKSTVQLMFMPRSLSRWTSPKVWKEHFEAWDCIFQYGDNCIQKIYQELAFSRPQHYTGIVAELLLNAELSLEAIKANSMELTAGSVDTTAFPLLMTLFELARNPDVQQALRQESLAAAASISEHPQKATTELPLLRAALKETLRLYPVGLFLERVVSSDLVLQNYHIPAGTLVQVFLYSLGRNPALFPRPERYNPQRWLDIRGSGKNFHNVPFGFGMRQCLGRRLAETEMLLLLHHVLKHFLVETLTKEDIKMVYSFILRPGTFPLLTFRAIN

## N#Cc1ccc([C@H]2CCc3cncn32)c(F)c1 [LCI699]
[1]; 3 mg/kg i.v.
  effect on ACTH-stimulated cortisol: reduced ACTH-stimulated cortisol
[1]; i.v. 0.003–1 mg/kg
  effect on ACTH-stimulated cortisol: no effect
[2]
  half-life: 2 to 5 h
[3]
  IC50: 160 ± 9 nM
[4]
  dose proportionality of pharmacokinetics: dose-proportional
[5]; LCI699 0.5 mg once daily
  Plasma potassium, Δ Day2 vs baseline (Day −1): +0.20 mEq/L
  Plasma potassium, Δ Day7 vs baseline (Day −1): +0.25^‡ mEq/L
  Plasma potassium, Δ Day14 vs Day 7: +0.05 mEq/L
  Plasma sodium, Δ Day2 vs baseline (Day −1): +0.23 mEq/L
  Plasma sodium, Δ Day7 vs baseline (Day −1): −1.71^‡ mEq/L
  Plasma sodium, Δ Day14 vs Day 7: +0.41 mEq/L
  Urinary potassium, Δ Day 1 vs baseline (Day −1): +9.2 mEq/24 h
  Urinary potassium, Δ Day 7 vs baseline (Day −1): +12.8 mEq/24 h
  Urinary potassium, Δ Day 14 vs Day 7: +20.2 mEq/24 h
  Urinary sodium, Δ Day 1 vs baseline (Day −1): +45.2^† mEq/24 h
  Urinary sodium, Δ Day 7 vs baseline (Day −1): +3.6 mEq/24 h
  Urinary sodium, Δ Day 14 vs Day 7: −25.5 mEq/24 h
[5]; LCI699 0.5 mg, Day 1
  change in 24 h urinary aldosterone levels from baseline: –39%
[5]; [23]
  reduction of 24 h urinary aldosterone: 39 ± 6%
  reduction of plasma aldosterone: 49 ± 3%
[5]; LCI699 0.5 mg, Day 6
  change in pre-dose plasma ACTH from baseline: −14.5%
[5]; LCI699 0.5 mg, Day 7
  increase in PRA from baseline: 106%
[5]; LCI699 0.5 mg, Day 14
  increase in PRA compared with baseline: 130%
[5]; LCI699 1 mg and 3 mg once daily, Day 14
  Mean pre-dose plasma aldosterone levels: 209 to 293 pg/mL
[5]; LCI699 1 mg once daily
  Plasma potassium, Δ Day2 vs baseline (Day −1): +0.08 mEq/L
  Plasma potassium, Δ Day7 vs baseline (Day −1): +0.12* mEq/L
  Plasma potassium, Δ Day14 vs Day 7: −0.06 mEq/L
  Plasma sodium, Δ Day2 vs baseline (Day −1): −0.59 mEq/L
  Plasma sodium, Δ Day7 vs baseline (Day −1): −0.11 mEq/L
  Plasma sodium, Δ Day14 vs Day 7: −0.01 mEq/L
  Urinary potassium, Δ Day 1 vs baseline (Day −1): +9.7 mEq/24 h
  Urinary potassium, Δ Day 7 vs baseline (Day −1): +17.4* mEq/24 h
  Urinary potassium, Δ Day 14 vs Day 7: +4.2 mEq/24 h
  Urinary sodium, Δ Day 1 vs baseline (Day −1): +76.3^‡ mEq/24 h
  Urinary sodium, Δ Day 7 vs baseline (Day −1): +44.0 mEq/24 h
  Urinary sodium, Δ Day 14 vs Day 7: −3.6 mEq/24 h
[5]; LCI699 1 mg, Day 1
  change in 24 h urinary aldosterone levels from baseline: –39%
[5]; LCI699 1 mg, Day 6
  change in pre-dose plasma ACTH from baseline: −31.4%
[5]; LCI699 1 mg, Day 7
  change in 24 h urinary aldosterone levels from baseline: −12%
  increase in PRA from baseline: 277%
[5]; LCI699 1 mg, Day 14
  increase in PRA compared with baseline: 327%
[5]; LCI699 3 mg once daily
  Plasma sodium, Δ Day2 vs baseline (Day −1): −0.73* mEq/L
  Plasma sodium, Δ Day7 vs baseline (Day −1): −2.87^‡ mEq/L
  Plasma sodium, Δ Day14 vs Day 7: −0.45 mEq/L
  Urinary potassium, Δ Day 1 vs baseline (Day −1): +2.9 mEq/24 h
  Urinary potassium, Δ Day 7 vs baseline (Day −1): +12.2 mEq/24 h
  Urinary sodium, Δ Day 1 vs baseline (Day −1): +64.0^‡ mEq/24 h
  Urinary sodium, Δ Day 7 vs baseline (Day −1): +22.2 mEq/24 h
  Urinary sodium, Δ Day 14 vs Day 7: −17.2 mEq/24 h
[5]; LCI699 3 mg, Day 1
  change in 24 h urinary aldosterone levels from baseline: –66%
[5]; LCI699 3 mg, Day 6
  change in pre-dose plasma ACTH from baseline: −15.6%
[5]; LCI699 3 mg, Day 7
  change in 24 h urinary aldosterone levels from baseline: −44%
  increase in PRA from baseline: 377%
  increase in trough 11-DOC levels from baseline: 228%
[5]; LCI699 3 mg, Day 14
  increase in PRA compared with baseline: 238%
[5]; LCI699 10 mg
  increase in pre-dose ACTH levels compared with baseline: 193%
[5]; LCI699 10 mg, Day 6
  increase in pre-dose plasma 11-deoxycortisol from baseline: 508%
[5]; LCI699 10 mg, Day 7, one subject (second subject no change)
  reduction in 24 h urinary cortisol: > 70%
[5]; LCI699 10 mg, data not shown
  plasma aldosterone following the 10 mg dose: No further reduction
[5]; LCI699 0.5 or 1 mg, Day 7
  change in trough 11-DOC levels: no change
[5]; LCI699 0.5–3 mg, Day 1, 7 or 14
  effect on plasma or 24 h urinary cortisol: no significant effect
[6]
  IC50: 410 ± 5 nM
[7]
  EC50: 41 nM
[8]; 1 mg once daily
  hypertensive patients with attenuated ACTH-stimulated cortisol response: approximately 20%
[8]; [24]
  placebo-corrected reduction in ambulatory diastolic blood pressure: 3–6 mmHg
  placebo-corrected reduction in ambulatory systolic blood pressure: 6–9 mmHg
[8]; total daily dose of 1 mg
  subjects with suppressed ACTH-stimulated cortisol release: approximately 20%
[9]
  Tmax: 0.9 to 3.5 h
  half-life: 1 to 2 h
[10]; po, read-out: ED50 for inhibition of ACTH-stimulated plasma aldosterone
  ED50: 0.013 mg/kg
[10]; read-out: EC50 for inhibition of ACTH-stimulated plasma aldosterone
  EC50: < 1 nM
[11]
  fraction unbound: 0.734
[12]; LCI699 0.5 mg, Day 6
  peak reduction of ACTH-stimulated cortisol levels from baseline: 1.8%
[12]; LCI699 0.5 mg, eplerenone 100 mg
  effect on ACTH-stimulated 11-DOC levels: no significant effect
[12]; LCI699 1 mg, Day 6
  maximal increase in ACTH-stimulated 11-DOC from baseline: 95%
  peak reduction of ACTH-stimulated cortisol levels from baseline: 11%
[12]; LCI699 1 mg, Day 13
  effect on ACTH-stimulated cortisol response: attenuation of the ACTH-stimulated cortisol response
[12]; LCI699 3 mg, Day 6
  maximal increase in ACTH-stimulated 11-DOC from baseline: 407%
  peak increase in ACTH-stimulated 11-deoxycortisol from baseline: 82%
  peak reduction of ACTH-stimulated cortisol levels from baseline: 22%
[12]; LCI699 3 mg, Day 13
  increase in ACTH-stimulated 11-DOC levels: 168%
  peak increase in ACTH-stimulated 11-deoxycortisol from baseline: 114%
[12]; LCI699 10 mg
  time to complete reversal of cortisol suppression after discontinuing: 4 to 9 days
[12]; LCI699 10 mg, Days 6 and 10
  effect on ACTH-stimulated cortisol: further suppressed
[12]; LCI699 0.5–3 mg, Day 6
  peak inhibition of ACTH-stimulated aldosterone levels from baseline (Day −2): 41–64%
[12]; eplerenone 100 mg and lower doses of LCI699 (0.5, 1 mg), Day 6 or Day 13
  effect on cortisol precursors (ACTH-stimulated): no significant effect
[13]; 30 mg/kg/day in drinking water from 24 weeks of age, P = 0.07
  prolongation of median survival: 23 weeks
[13]; LCI699 30 mg/kg/day, n = 7
  treated rats that died suddenly: two of the seven
[14]
  dose proportionality of pharmacokinetics: dose-proportional
[15]; oral
  dose above which inhibition of stimulated plasma aldosterone shows an apparent plateau: > 10 mg/kg
[15]; [25]
  Maximal reduction in plasma aldosterone from baseline: 80%
[16]; Ang-II- and ACTH-stimulation models in rats and monkeys
  maximal inhibition of aldosterone production at the upper dose: 80–90%
[16]; monkey, 150 μg/kg oral, 3 h prior to ACTH
  decrease in ACTH-stimulated plasma aldosterone response compared with vehicle control: ~90%
[16]; monkey, 5–150 μg/kg oral
  inhibition of ACTH-stimulated cortisol synthesis: No significant inhibition
  recovery of plasma aldosterone levels: returned to baseline 24 h after dosing
[17]
  fraction unbound: 0.641
[18]
  IC50: 12 ± 1 nM
[19]; oral
  dose above which inhibition of stimulated plasma aldosterone shows an apparent plateau: above 1 mg/kg
[19]; [25]
  Maximal reduction in plasma aldosterone from baseline: 80%
[20]
  IC50: 802 nM
[21]
  mode of inhibition of 11β-hydroxylase: reversible competitive inhibitor
[22]; at the 10 mg single dose, no further reduction up to 200 mg
  plateau of maximal inhibition of plasma aldosterone: approximately 80%
[22]; single dose 100 mg
  increase in 11-deoxycortisol: 942%
[22]; single dose 200 mg
  increase in 11-deoxycortisol: 584%
[22]; single dose 200 mg, 24 h post-dose, P = 0.029 vs placebo
  decrease in plasma cortisol: 19%
[22]; single doses 3–100 mg
  effect on plasma cortisol: did not significantly alter
[22]; single doses of 30, 100 or 200 mg
  reductions in 24-h urinary cortisol: 34–42%
